Measurements taken from patent US10780074B2, “Compounds and uses thereof” (Sunovion Pharmaceuticals Inc., priority 2017, dated 2020).
Counter-ions that a name gives are not always drawn. Like-named read-outs stand apart in the source and are kept apart here.

What was measured:
[1] = system: MES-induced seizures; assay: Mouse Maximum Electroshock Assay (MES); type: in vivo; conditions: male CF-1 mice, fewer than 4 animals tested, given as N/F
Description: Mouse Maximum Electroshock Assay (MES)
Mouse Maximum Electroshock Assay (MES) is a model for generalized tonic-clonic seizures and provides an indication of a compound's ability to prevent seizure spread when all neuronal circuits in the brain are maximally active. These seizures are highly reproducible and are electrophysiologically consistent with human seizures. For all MES tests, 60 Hz of alternating current (50 mA in mice and 150 mA in rats) was delivered for 0.2 sec by corneal electrodes which had been primed with an electrolyte solution containing an anesthetic agent (0.5% tetracaine HCl). An animal was considered “protected” from MES-induced seizures upon abolition of the hindlimb tonic extensor component of the seizure. Initial screen for anticonvulsant activity in the MES was performed with N=4 male CF-1 mice/dose/time point. The default doses and time-points were 3 and 30 mg/kg at 0.25 and 0.5 hr following administration. Quantification of the ED50 was conducted at the time of peak effect (TPE). To determine the TPE, groups of N=4 mice were treated with the investigational compound at 0.25, 0.5, 1.0, 2.0 and 4.0 hrs prior to MES testing, or based on time-points from prior studies. […] Quantitation of the ED50 was conducted the same as described for mice above.

[2] = system: behaviors of compound-treated mice; assay: Neuropharmacological Assay (SmartCube); type: in vivo; conditions: for minimal effective dose: Mus musculus, ip, 0.25 h, dose having 50% or more total activity in SmartCube, read-out: MED (minimal effective dose)
Method in brief: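 Behavioral signatures were captured automatically by video, and each drug class received a probability for the best of three i.p. doses given 15 min pre-test (vehicle: Pharmasolve/PEG/propylene glycol). Potency is given as MED, the lowest mpk dose (typically 0.3–30) reaching 50% or more total activity.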

[3] = i.p. 15 min before behavioral test, most efficacious dose(s) of 3 doses
[4] = SmartCube, i.p. 15 min before test, most efficacious dose(s)

Compound | Seizure protection at 30 mg/kg (animals protected/animals tested) [1] | minimal effective dose ([2]; i.p.) | AD: ADHD (probability that activity matches class) [2, 3] | AG: analgesic (probability that activity matches class) [2, 3] | AX: anxiolytic (probability that activity matches class) [2, 3] | CE: cognitive enhancer (probability that activity matches class) [2, 3] | DP: anti-depressant (probability that activity matches class) [2, 3] | MS: mood stabilizer (probability that activity matches class) [2, 3] | PS: anti-psychotic (probability that activity matches class) [2, 3] | SD: sedative hypnotic (probability that activity matches class) [2, 3] | UN: uncharacterized CNS activity (probability that activity matches class) [2, 3] | also measured
CNC[C@H]1OCCc2c(-c3cnccn3)cccc21 (single isomer, unassigned) [Compound 81] | 3/3 animals tested | ≤ 3 mg/kg | ++ (5% ≤ ++ <25%) | + (LOQ ≤ + <5%) | ++ (5% ≤ ++ <25%) | + (LOQ ≤ + <5%) | ++++ (50% ≤ ++++) | + (LOQ ≤ + <5%) | + (LOQ ≤ + <5%) | + (LOQ ≤ + <5%) | +++ (25% ≤ +++ <50%) | 
CNC[C@@H]1OCCc2c(-c3cnco3)cccc21 (single isomer, unassigned) [Compound 96, hydrochloride salt] | 2/2 animals tested | ≤ 3 mg/kg | ++ (5% ≤ ++ <25%) | + (LOQ ≤ + <5%) | +++ (25% ≤ +++ <50%) | + (LOQ ≤ + <5%) | ++++ (50% ≤ ++++) | + (LOQ ≤ + <5%) | + (LOQ ≤ + <5%) | ++++ (50% ≤ ++++) | + (LOQ ≤ + <5%) | 
NC[C@H]1OCCc2c1cccc2-n1cccn1 [Compound 189, (S)-(5-(1H-pyrazol-1-yl)isochroman-1-yl)methanamine hydrochloride salt] |  |  |  |  |  |  |  |  |  |  |  | minimal effective dose [2]: 10 to 30 mg/kg; AD: ADHD (probability that activity matches class) [2, 4]: ++ (5% ≤ ++ <25%); AG: analgesic (probability that activity matches class) [2, 4]: + (LOQ ≤ + <5%); AX: anxiolytic (probability that activity matches class) [2, 4]: ++ (5% ≤ ++ <25%); CE: cognitive enhancer (probability that activity matches class) [2, 4]: + (LOQ ≤ + <5%); DP: anti-depressant (probability that activity matches class) [2, 4]: ++ (5% ≤ ++ <25%); MS: mood stabilizer (probability that activity matches class) [2, 4]: + (LOQ ≤ + <5%); PS: anti-psychotic (probability that activity matches class) [2, 4]: + (LOQ ≤ + <5%); SD: sedative hypnotic (probability that activity matches class) [2, 4]: + (LOQ ≤ + <5%); UN: uncharacterized CNS activity (probability that activity matches class) [2, 4]: ++++ (50% ≤ ++++)
